Type in all cases: in vivo
The nature of data set [1]: Mice feeding studies: cumulative food intake after subcutaneous administration. As to conditions: mice fasted 16 h, over 48 hours. The protocol:
Male C57BL/6 mice (Harlan) or male Wistar rats (Charles River Ltd, Margate, UK) were used for all animal experiments.
Mice were individually housed in IVC cages. Animals were randomised into treatment groups, with stratification by body weight. Mice were fasted overnight (16 hrs) prior to peptide or vehicle administration. All peptide solutions were prepared freshly, immediately prior to administration. The vehicle used for all studies was 5% v/v water and 95% v/v sodium chloride (0.9% w/v). Peptide and vehicle were administered by subcutaneous injection, with dosage corrected for bodyweight. The injection volume was […]. […] Food intake was measured at 24 and 48 hours post injection. All statistics are calculated using a one-way ANOVA with Dunnett's post-test or one-way ANOVA with Bonferroni post-test.
Peptide hormone analogues of the invention (G1698 [SEQ ID NO 1], 500 nmol/kg dosage, reconstituted in saline, and G1718 [SEQ ID NO 6], 200 nmol/kg dosage, reconstituted in saline), comparator compounds (G1697, 500 nmol/kg dosage, reconstituted in saline, and G1717, 200 nmol/kg dosage, reconstituted in saline), or saline (vehicle control group) were administered subcutaneously to mice (group size 4-6 animals). […] Food intake (in grams) was measured at time intervals over 48 hours.

The nature of data set [2]: Mice feeding studies: body weight increase over 7 days. Particulars: 200 nmol/kg subcutaneous in saline, compared with comparator having only His30-His31-His32 (G1721 or G1779; FIGS. 4, 5).
The nature of data set [3]: Rat pharmacokinetic studies: plasma concentration after subcutaneous injection with ZnCl2 (radioimmunoassay). Particulars: 4 rats, 2 mg of each compound in 20 μl aqueous ZnCl2 at 1:1 molar ratio, 3 days (FIG. 7). As for the experimental part: Male C57BL/6 mice (Harlan) or male Wistar rats (Charles River Ltd, Margate, UK) were used for all animal experiments. The pharmacokinetics of a peptide hormone analogue of the invention in rat was evaluated over 7 days. 4 rats were injected subcutaneously with the peptide hormone analogue G2051 [SEQ ID NO 197]. Each injection was of […] total volume/rat containing 2 mg peptide and 1 zinc ion (as ZnCl2) per peptide molecule. Blood was collected at the indicated time points, and the concentration of the peptide hormone analogue was determined. Peptide levels were assessed by/using radioimmunoassay using R4 exendin-4 antibody. […] 4 rats were injected subcutaneously with the peptide hormone analogue G2051 [SEQ ID NO 197]. Each injection was of 20 μl total volume/rat containing 2 mg peptide and 1 zinc ion (as ZnCl2) per peptide molecule. Blood was collected at the indicated time points, and the concentration of the comparator compound was determined. Peptide levels were assessed by/using radioimmunoassay using R4 exendin-4 antibody.

Ends that are not written are not given here.

For “G1718: peptide hormone analogue of the invention; C-terminal extension His30-His31-His32-His33; full sequence only in FIG. 1 (HSQGTFTSDYSHYLDQRRAHEFIQWLLNGHHHH; hormone analogue)”, the “reduction of cumulative food intake relative to saline control” value in data set [1] (200 nmol/kg subcutaneous in saline, compared with comparator G1717 (FIG. 3)) was “more potent and more sustained reduction”.

Regarding “G1722: peptide hormone analogue of the invention; C-terminal extension His30-His31-His32-His33; full sequence only in FIG. 1 (HSQGTFTSDYSHYLDSKRAHEFIQWLLNGHHHH; hormone analogue)”, the “reduction of body weight increase relative to saline control” value in data set [2] is “more potent and more sustained reduction”.

As to “G1698: peptide hormone analogue of the invention; C-terminal extension His30-His31-His32-His33; full sequence only in FIG. 1 (HSQGTFTSDYSKYLDERRAHEFIEWLLNGHHHH; hormone analogue)”, the “reduction of cumulative food intake relative to saline control” value in data set [1] (500 nmol/kg subcutaneous in saline, compared with comparator G1697 (FIG. 2)) is “more potent and more sustained reduction”. With HSQGTFTSDYSKYLDSKKAQEFVQWLLNT [G162], in data set [3], the “initial increase or spike in plasma concentration level” value (“initial increase or spike” below) was “initial increase or “spike” in plasma concentration level is observed”. In the case of “G1781: peptide hormone analogue of the invention; full sequence only in FIG. 1 (HSQGTFTSDYSKYLDERRAHEFIEWLLNGGHHHH; hormone analogue)”, the “reduction of body weight increase relative to saline control” value in data set [2] was “more potent and more sustained reduction”.

As for HSQGTFTSDYSKYLDSKKAQEFVEWLMNT [G202], in data set [3], the “initial increase or spike” value is on record as “initial increase or “spike” in plasma concentration level is observed”. Consider “HSQGTFTSDYSKYLDSKKAQEFVQWLMNT-NH2 [G200]”, for which, in data set [3], the “initial increase or spike” value was “initial increase or “spike” in plasma concentration level is observed”. HSQGTFTSDYSKYLDHRRAKDFVQWLMNT-NH2 [G94]: the “initial increase or spike” value in data set [3] is “initial increase or “spike” in plasma concentration level is observed”.

The values are drawn from patent US10125182B2, “Peptides hormone analogues derivable from preproglucagon” (IMPERIAL INNOVATIONS LIMITED, priority 2014, dated 2018).
